tested on: SH-Ratte; experiment: Blood pressure lowering in conscious spontaneously hypertensive rats (tail cuff, oral dosing); assay type: in vivo; conditions: Rattus norvegicus; SH-Ratte: Blutdrucksenkung >15 mm; intragastral ("oral") in Tylosesuspension; read-out: Grenzdosis
Description: Die Substanzen wurden an der wachen Ratte auf ihre blutdrucksenkende Wirkung hin untersucht. An wachen Ratten mit genetisch bedingtem Hochdruck ("spontan hypertone Ratten" des Okamoto-Stammes) wird der arterielle Blutdruck mit der "Schwanz-Manchette" in definierten Zeitabständen nach Substanzgabe unblutig gemessen. Die zu prüfenden Substanzen werden aufgeschwemmt in einer Tylosesuspension intragastral ("oral") per Schlundsonde in verschiedenen Dosen appliziert. Die erfindungsgemäßen Verbindungen senken den arteriellen Blutdruck der Hochdruckratten in klinisch relevanter Dosierung.

SMILES	minimal effective dose
COC(=O)C1=C(C)NC(C)=C(C(=O)OCCOC(=O)c2ccccc2OC(C)=O)C1c1ccccc1C(F)(F)F (stereo not drawn) [Beispiel 1, 5-[2-(2-Acetoxybenzoyloxy)ethoxycarbonyl]-2,6-dimethyl-4-(2-trifluormethylphenyl)-1,4-dihydropyridin-3-carbonsäuremethylester]	10 mg/kg
CC(=O)Oc1ccccc1C(=O)OCCOC(=O)C1=C(C)NC(C)=C(C(=O)OC(C)C)C1c1ccccc1Cl (stereo not drawn) [Beispiel 4]	30 mg/kg
CC(=O)Oc1ccccc1C(=O)OCCOC(=O)C1=C(C)NC(C)=C(C(=O)OC(C)C)C1c1ccccc1C(F)(F)F (stereo not drawn) [Beispiel 3]	10 mg/kg
COC(=O)C1=C(C)NC(C)=C(C(=O)OCCOC(=O)c2ccccc2OC(C)=O)C1c1cccc(Cl)c1Cl (stereo not drawn) [Beispiel 6, 5-[2-(2-Acetoxybenzoyloxy)ethoxycarbonyl]-2,6-dimethyl-4-(2,3-dichlorphenyl)-1,4-dihydropyridin-3-carbonsäuremethylester]	3 mg/kg
CCOC(=O)C1=C(C)NC(C)=C(C(=O)OCCOC(=O)c2ccccc2OC(C)=O)C1c1ccccc1C(F)(F)F (stereo not drawn) [Beispiel 5, 5-[2-(2-Acetoxybenzoyloxy)ethoxycarbonyl]-2,6-dimethyl-4-(2-trifluormethylphenyl)-1,4-dihydropyridin-3-carbonsäureethylester]	10 mg/kg
CC(=O)Oc1ccccc1C(=O)OCCOC(=O)C1=C(C)NC(C)=C(C(=O)OC(C)C)C1c1ccccc1[N+](=O)[O-] (stereo not drawn) [Beispiel 2]	30 mg/kg

From patent EP0591765A2, “1,4-Dihydropyridine-alkoxy and alkylamino esters as antihypertensives” (BAYER AG, priority 1992, dated 1994)
